Patent US9132131B2, “Use of adenosine A3 receptor agonists for treatment of neuropathic pain” (Saint Louis University, priority 2011, dated 2015)

Experiments:
[1] = tested on: RPMI 8226 multiple myeloma cells; experiment: MTT cell survival assay, RPMI 8226; type: cell-based, human; details: 48 hours
Protocol: Cells were cultured and assayed in DMEM (SKBR3; human breast cancer cells), L15 (SW480; human colon cancer cells) or RPMI […] (RPMI 8226; human multiple myeloma cells) supplemented with heat-denatured 10% FBS and penicillin/streptomycin at 37° C., 0% (SW480) or 5% CO2 (SKBR3 and RPMI 8226), 95% humidity. The antitumor activities of these agents were measured in cells (6.25×10^4 cells/well) cultured overnight in 24-well plates (SKBR3 and SW480; BD Biosciences) or 12 mm×7.5 mm culture tubes (RPMI 8226; BD Biosciences) in complete media. […] Two naïve control wells were included as a control for 100% survival. Cell survival was determined using a MTT (3-(4,5-dimethylthiazol-2-yl)-2,5-diphenyltetrazolium bromide) assay adapted from a previously described assay. Cells were incubated with MTT (500 μg/ml) for 75 minutes at 37° C., 0% or 5% CO2, 95% humidity, removing the media and dissolving the tetrazolium crystals in isopropanol. […] The antitumor effects of IB-MECA alone were determined as % Survivability=(A560-570 nm of chemotherapeutic vehicle+IB-MECA)/(mean A560-570 nm of the naïve control wells)×100. The LD50 of each chemotherapeutic agent+IB-MECA or its vehicle was calculated using three-parameter non-linear analysis using % Survivability=(A560-570 nm of chemotherapeutic+IB-MECA or its vehicle)/(mean A560-570 nm chemotherapeutic vehicle+vehicle of IB-MECA)×100. […]

[2] = subjects receiving the drug; cited from earlier work
[3] = tested on: acute nociception (tail flick latency); experiment: Tail flick assay for acute nociception; type: in vivo, mice; details: IB-MECA, MRS1898 0.5 μmol/kg i.p. at 30, 60, 120 minutes; morphine 35 μmol/kg s.c. positive control
Protocol: (§1) Tail flick and hot plate assay in mice for acute nociception. The tail flick test, which measures latency(s) of tail withdrawal from a noxious radiant heat source (Ugo Basile; model number 37360) was used to measure thermal nociceptive sensitivity in mice with baseline latencies of 3-5 seconds and a cut-off time of 15 seconds to prevent tissue injury. Tail flick latencies were taken before and at 30, 60 and 120 minutes after i.p. injection of IB-MECA, MRS1898 (0.5 μmol/kg) or its vehicle (0.1% DMSO in saline). For the hot plate test, nociceptive thresholds were determined as previously reported by our group by measuring latencies (in seconds) of mice placed in a transparent glass cylinder on a hot plate maintained at 52° C.. Responses indicative of nociception included intermittent lifting and/or licking of the hindpaws or escape behavior. Hot plate latencies were taken in mice from all groups before and after drug administration. A cut-off latency of 15 seconds was employed to prevent tissue damage.

[4] = tested on: paclitaxel-induced neuropathic pain; experiment: Paclitaxel-induced neuropathic pain (mechano-allodynia, mechano-hyperalgesia); type: in vivo, rats; details: 0.2 μmol/kg/d (not shown)
[5] = tested on: CCI of the sciatic nerve (mechano-allodynia); experiment: CCI model of neuropathic pain, mechano-allodynia (von Frey PWT); type: in vivo, mice
Protocol: CCI model of neuropathic pain. CCI to the sciatic nerve of the left hind leg in mice was performed under general anaesthesia using the well-characterized Bennett model. Briefly, mice (weighing 25-30 g at the time of surgery) were anesthetized with 3% isoflurane/100% O2 inhalation and maintained on 2% isoflurane/100% O2 for the duration of surgery. The left thigh was shaved, scrubbed with Nolvasan® and a small incision (1-1.5 cm in length) was made in the middle of the lateral aspect of the left thigh to expose the sciatic nerve. The nerve was loosely ligated around the entire diameter of the nerve at three distinct sites (spaced 1 mm apart) using silk sutures (6.0). The surgical site was closed with a single muscle suture and a skin clip. Pilot studies established that under our experimental conditions peak mechano-allodynia develops by day 5-day 7 (D5-D7) following CCI. Test substances or their vehicles were given subcutaneously (s.c.), intraperitoneally (i.p.) or orally by gavage (0.1 ml) at peak mechano-allodynia (D7).
Behavioral testing. […] The plantar aspect of hindpaws were probed three times with calibrated von Frey filaments (Stoelting, mice: 0.07-2.00 grams; rats: 0.407-26 grams) according to the “up-and-down” method. […] Briefly, each rat was placed in a Plexiglas chamber (28×40×35-cm, wire mesh floor) and after its acclimation, a servo-controlled mechanical stimulus was applied to the plantar surface that exerted a progressively increasing punctate pressure up to 50 grams within 10 seconds. Mechanical threshold was assessed three times at each time point to yield a mean value, reported as PWT (grams). […] Mechano-hyperalgesia was assessed in rats by the Randall and Sellitto paw pressure test using an analgesiometer (Ugo Basile). The nociceptive threshold was defined as the force (grams) at which the rat withdrew its paw (cut off set at 250 grams).
Determining ED50 values. Dose response data were curve-fitted using the least sum of square method by a normalized 4-parameter, variable slope non-linear analysis of the % Reversal of Mechano-allodynia in CCI and % Prevention of Mechano-allodynia or Mechano-hyperalgesia in CIPN using GraphPad Prism (Release 5.03, GraphPad Software, Inc.) from which the ED50 was determined and reported with the 95% confidence interval (95% CI). In the CCI model, the % Reversal of Mechano-allodynia=(PWT1h−PWTD7)/(PWTD0−PWTD7)×100, where PWTD0=Paw Withdrawal Threshold (g) at D0, PWT1h=Paw Withdrawal Threshold (g) at 1 hour after the administration of IB-MECA, gabapentin, amitriptyline, or combinations of IB-MECA with gabapentin or amitriptyline, and PWTD7=Paw Withdrawal Threshold (grams) at D7 prior to drug administration.
Statistical Analysis. Data are expressed as mean±SD for n animals. Behavioral data were analyzed by two-way repeated measures ANOVA with Bonferroni comparisons (full time course studies) or one-way ANOVA Dunnett's comparisons (1 hour behavioral data). The dose response curves were compared to a globally fitted curve using the extra sum-of-squares F-test comparisons to determine whether the data represented distinct curves between treatments. Significant differences were defined at a P<0.05. All statistical analysis was performed using GraphPad Prism (v5.03, GraphPad Software, Inc.).

[6] = tested on: acute nociception (hot plate latency); experiment: Hot plate assay for acute nociception; type: in vivo, mice; details: 0.5 μmol/kg
Protocol: as §1

Compound	LD50 [1]	incidence of CIPN [2]	effect on tail flick latency [3]	effect on paclitaxel-induced neuropathic pain [4]	effect on PWT in contralateral paws ([5]; D7 after CCI, drug alone)	reversal of mechano-allodynia in ipsilateral paws ([5]; single dose D7, IB-MECA 0.2-2, CI-IB-MECA 0.6, MRS1898 0.5 μmol/kg i.p., morphine 0.11-35 s.c., gabapentin 18-584 i.p., amitriptyline 3-191 μmol/kg oral)	effect on the hot plate [6]
CC(C)C[C@H](NC(=O)[C@H](Cc1ccccc1)NC(=O)c1cnccn1)B(O)O [Bortezomib]	27 nM	36-55%					
CNC(=O)[C@]12C[C@@H]1[C@@H](n1cnc3c(NCc4cccc(I)c4)nc(Cl)nc31)[C@H](O)[C@@H]2O [MRS1898, (1′R,2′R,3′S,4′R,5′S)-4-{2-chloro-6-[(3-iodophenylmethyl)amino]purin-9-yl}-1-(methylaminocarbonyl)-bicyclo[3.1.0]hexane-2,3-diol]			lacked effect	completely blocked	had no effect	reversed mechano-allodynia	had no effect
